Numbered stars: 1 amine (or outer) side, 2 acyl side, 3 side chain; on linkers, the order of the positions; unused ones are H or OH. Square brackets hold non-standard residues; d marks the D form. Peptide text beside a SMILES is read from it. * marks the point of attachment. Propanoyl(3-(4-F-phenyl)) = O=C(CCc1ccc(F)cc1)*; Propanoyl(3-(4-Cl-Ph)) = O=C(CCc1ccc(Cl)cc1)*; d1Nal = N[C@H](Cc1cccc2ccccc12)C(=O)O; d2Nal = N[C@H](Cc1ccc2ccccc2c1)C(=O)O; Acetyl(3-pyridyl) = O=C(Cc1cccnc1)*; NMeY = CN[C@@H](Cc1ccc(O)cc1)C(=O)O; Hydrocinnamoyl = O=C(CCc1ccccc1)*; d3Pal = N[C@H](Cc1cccnc1)C(=O)O; d2Thi = N[C@H](Cc1cccs1)C(=O)O; dCha = N[C@H](CC1CCCCC1)C(=O)O; Nicotinoyl = O=C(c1cccnc1)*; X12 = O=C(c1ccc(F)c(Cl)c1)*; X14 = O=C(CCn1ccc2ccccc21)*; NMeS = CN[C@@H](CO)C(=O)O; Morpholide = C1CN(*)CCO1; CO = O=C([*:1])[*:2]

For one experiment, the target named is T1, LHRH receptors (Rattus norvegicus, UniProt P30969).
T1 construct: Pituitary membranes containing LHRH receptors are prepared in batches from quick-frozen rat pituitaries; tissue Hilltop Labs; host or cells: rat pituitary membranes
T1 sequence (P30969 1-327): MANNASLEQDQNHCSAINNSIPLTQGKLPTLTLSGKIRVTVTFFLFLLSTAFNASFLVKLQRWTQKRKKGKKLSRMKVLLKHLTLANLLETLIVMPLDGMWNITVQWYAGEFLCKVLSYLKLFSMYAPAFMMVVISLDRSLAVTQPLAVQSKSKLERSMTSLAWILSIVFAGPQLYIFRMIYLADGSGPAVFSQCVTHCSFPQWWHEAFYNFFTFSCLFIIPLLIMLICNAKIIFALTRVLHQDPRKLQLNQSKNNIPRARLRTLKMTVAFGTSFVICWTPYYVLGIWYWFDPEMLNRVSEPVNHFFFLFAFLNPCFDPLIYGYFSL
Nature of the experiment: Receptor Binding (radioligand receptor binding assay). The note with it: table 3; rat pituitary membranes, radioiodinated [D-Leu^6 -des Gly^10 ]-LHRH ethyl amide 50 pM, 2 hours at 4° C.; read-out: Receptor Binding pkI (converted).
Consider `CCNC(=O)[C@@H]1CCCN1C(=O)[C@H](CCCN=C(N)N)NC(=O)[C@H](CC(C)C)NC(=O)[C@@H](Cc1c[nH]c2ccccc12)NC(=O)[C@H](Cc1ccc(O)cc1)NC(=O)[C@@H]1CCCN1C(=O)[C@@H](Cc1c[nH]c2ccccc12)NC(=O)CCc1ccc(F)cc1` [Compound 100, (3-9)[N-(3-(4-Fluorophenyl)propionyl)-D -Trp^3,6 -Pro^4,9 NHEt]LHRH] ({Propanoyl(3-(4-F-phenyl))}-[dW]PY[dW]LRP-NHEt), for which the Ki is 2.88 nM.

`CCNC(=O)[C@@H]1CCCN1C(=O)[C@H](CCCNC(=N)N)NC(=O)[C@H](CC(C)C)NC(=O)[C@@H](Cc1c[nH]c2ccccc12)NC(=O)[C@H](Cc1ccc(O)cc1)NC(=O)[C@H](CO)NC(=O)[C@H](Cc1c[nH]c2ccccc12)NC(=O)CCc1ccccc1` [Compound 65, (3-9)[N-(3-Phenylpropionyl)-Trp^3 -D-Trp^6 -Pro^9 -NHEt]LHRH] (Hydrocinnamoyl-WSY[dW]LRP-NHEt): the Ki is 0.269 nM. The same measure, in the same setting: the figure for `CCNC(=O)[C@@H]1CCCN1C(=O)[C@H](CCCNC(=N)N)NC(=O)[C@H](CC(C)C)NC(=O)[C@@H](CC1CCCCC1)NC(=O)[C@H](Cc1ccc(O)cc1)NC(=O)[C@H](CO)NC(=O)CCn1ccc2ccccc21` [Compound 34, (4-9)[N-(3-(1-Indole)propionyl)-Ser^4 -D-Cha^6 -Pro^9 -NHEt]LHRH] (X14-SY[dCha]LRP-NHEt) is 41.7 nM; for `CCNC(=O)[C@@H]1CCCN1C(=O)[C@H](CCCNC(=N)N)NC(=O)[C@H](CC(C)C)NC(=O)[C@@H](Cc1c[nH]c2ccccc12)NC(=O)[C@H](Cc1ccc(O)cc1)NC(=O)[C@H](CO)NC(=O)[C@H](Cc1c[nH]c2ccccc12)NC(=O)[C@@H](Cc1ccc2ccccc2c1)NC(=O)N1CCOCC1` [Compound 111, (2-9)[N-(N-alpha-Morpholinocarbonyl)-D-2-Nal^2 -D-Trp^6 -Pro^9 NHEt]LHRH] ({Morpholide-CO}-[d2Nal]WSY[dW]LRP-NHEt) it is 2.75 nM; for `CCNC(=O)[C@@H]1CCCN1C(=O)[C@H](CCCNC(=N)N)NC(=O)[C@H](CC(C)C)NC(=O)[C@@H](Cc1c[nH]c2ccccc12)NC(=O)[C@H](Cc1ccc(O)cc1)NC(=O)[C@H](CO)NC(=O)[C@H](Cc1c[nH]c2ccccc12)NC(=O)[C@H](Cc1c[nH]cn1)NC(=O)N1CCOCC1` [Compound 109, (2-9)[N-(N-alpha-Morpholinocarbonyl)-His^2 -D-Trp^6 -Pro^9 NHEt]LHRH] ({Morpholide-CO}-HWSY[dW]LRP-NHEt) it is 0.316 nM. For the molecule `CCNC(=O)[C@@H]1CCCN1C(=O)[C@H](CCCNC(=N)N)NC(=O)[C@H](CC(C)C)NC(=O)[C@@H](Cc1c[nH]c2ccccc12)NC(=O)[C@H](Cc1ccc(O)cc1)NC(=O)[C@H](CO)NC(=O)[C@H](Cc1c[nH]c2ccccc12)NC(=O)CCc1ccc(Cl)cc1` [Compound 98, (3-9)[N-(3-(4-Chlorophenyl)propionyl) -Trp^3 -D-Trp^6 -Pro^9 NHEt]LHRH] ({Propanoyl(3-(4-Cl-Ph))}-WSY[dW]LRP-NHEt), the Ki is 0.0525 nM.

Take `CCNC(=O)[C@@H]1CCCN1C(=O)[C@H](CCCNC(=N)N)NC(=O)[C@H](CC(C)C)NC(=O)[C@@H](CC(C)C)NC(=O)[C@H](Cc1ccc(O)cc1)NC(=O)[C@H](CO)NC(=O)Cc1cccnc1` [Compound 40, (4-9)[N-(3-Pyridylacetyl)-Ser4-D-Leu^6 -Pro^9 -NHEt] LHRH] ({Acetyl(3-pyridyl)}-SY[dL]LRP-NHEt): the Ki was 4370 nM. The same measure, in the same setting: the figure for `CCNC(=O)[C@@H]1CCCN1C(=O)[C@H](CCCNC(=N)N)NC(=O)[C@H](CC(C)C)NC(=O)[C@@H](Cc1c[nH]c2ccccc12)NC(=O)[C@H](Cc1ccc(O)cc1)NC(=O)[C@H](CO)N(C)C(=O)[C@H](Cc1c[nH]c2ccccc12)NC(=O)[C@H](Cc1ccccc1)NC(=O)N1CCOCC1` [Compound 115, (2-9)[N-(N-alpha-Morpholinocarbonyl)-Phe^2 -N-Me-Ser^4 -D-Trp^6-Pro^9 -NHEt]LHRH] ({Morpholide-CO}-FW[NMeS]Y[dW]LRP-NHEt) is 2.24 nM.

On to `CCNC(=O)[C@@H]1CCCN1C(=O)[C@H](CCCNC(=N)N)NC(=O)[C@H](CC(C)C)NC(=O)[C@@H](Cc1c[nH]c2ccccc12)NC(=O)[C@H](Cc1ccc(O)cc1)NC(=O)[C@H](CO)NC(=O)C(Cc1cccc2ccccc12)NC(C)=O` (single isomer, unassigned) [Compound 83, (3-9) [N-Ac-1-Nal^3 -D-Trp^6 -Pro^9 NHEt]LHRH], for which the Ki is 0.123 nM.

The same experiment, now with this note: table 4; rat pituitary membranes, radioligand 50 pM, 2 hours at 4° C.; read-out: Receptor Binding pkI (converted).
As to `CCNC(=O)N[C@@H](Cc1ccccc1)C(=O)N[C@H](Cc1cccc2ccccc12)C(=O)N[C@@H](CO)C(=O)N[C@@H](Cc1ccc(O)cc1)C(=O)N[C@H](Cc1c[nH]c2ccccc12)C(=O)N[C@@H](CC(C)C)C(=O)N[C@@H](CCCNC(=N)N)C(=O)N1CCC[C@H]1C(=O)NCC` [Compound 238, (2-9)[N-(alpha-Ethylaminocarbonyl)-Phe^2 -D-1-Nal^3 -D-Trp^6 -Pro^9 NHEt]LHRH] ({NHEt-CO}-F[d1Nal]SY[dW]LRP-NHEt), the Ki is 0.251 nM.

For the molecule `CC(C)C[C@H](NC(=O)[C@@H](CCCCN)NC(=O)[C@H](Cc1ccc(O)cc1)N(C)C(=O)[C@H](CO)NC(=O)[C@@H](Cc1c[nH]c2ccccc12)NC(=O)CCc1ccc(F)cc1)C(=O)N[C@@H](CCCNC(=N)N)C(=O)N1CCC[C@H]1C(=O)N[C@H](C)C(N)=O` [Compound 173, (3-10)[N-(3-(4-Fluorophenyl)propionyl)-D-Trp^3 -NMeTyr^5 -D-Lys^6 -D-Ala^10]LHRH] ({Propanoyl(3-(4-F-phenyl))}-[dW]S[NMeY][dK]LRP[dA]-NH2), the Ki was 0.00575 nM. On to `CC(C)C[C@H](NC(=O)[C@@H](CCCCN)NC(=O)[C@H](Cc1ccc(O)cc1)N(C)C(=O)[C@H](CO)NC(=O)[C@@H](Cc1cccnc1)NC(=O)CCc1ccc(F)cc1)C(=O)N[C@@H](CCCNC(=N)N)C(=O)N1CCC[C@H]1C(=O)N[C@H](C)C(N)=O` [Compound 170, (3-10)[N-(3-(4-Fluorophenyl)propionyl)-D-3-Pal^3 -NMeTyr^5 -D-Lys^6 -D-Ala^10]LHRH] ({Propanoyl(3-(4-F-phenyl))}-[d3Pal]S[NMeY][dK]LRP[dA]-NH2), for which the Ki is 0.0204 nM. Take `CC(C)C[C@H](NC(=O)[C@@H](CCCCNC(=O)c1cccnc1)NC(=O)[C@H](Cc1ccc(O)cc1)N(C)C(=O)[C@H](CO)NC(=O)[C@@H](Cc1cccs1)NC(=O)CCc1ccc(F)cc1)C(=O)N[C@@H](CCCNC(=N)N)C(=O)N1CCC[C@H]1C(=O)N[C@H](C)C(N)=O` [Compound 161, N-[3-(4-Fluorophenyl)propionyl]-D-Thia-Ser-NMeTyr-D -Lys(N-epsilon-nicotinyl)-Leu-Arg-Pro-D-AlaNH2] ({Propanoyl(3-(4-F-phenyl))}-[d2Thi]S[NMeY][dK](Nicotinoyl)LRP[dA]-NH2): the Ki is 0.0151 nM. Still for that read-out and setting: the figure for `CC(=O)NCCCC[C@H](NC(=O)c1ccc(F)c(Cl)c1)C(=O)N[C@H](Cc1cccc2ccccc12)C(=O)N[C@@H](CO)C(=O)N(C)[C@@H](Cc1ccc(O)cc1)C(=O)N[C@H](CCCCN)C(=O)N[C@@H](CC(C)C)C(=O)N[C@@H](CCCNC(=N)N)C(=O)N1CCC[C@H]1C(=O)N[C@H](C)C(N)=O` [Compound 214, N-alpha-(3-Chloro-4-Fluorobenzoyl)-Lys(N-epsilon-acetyl)-D-1-Nal-Ser-NMeTyr-D-Lys-Leu-Arg-Pro-D-AlaNH2] (X12-K(Ac)[d1Nal]S[NMeY][dK]LRP[dA]-NH2) is 0.141 nM.
